Data as given in ChEMBL document CHEMBL4825774, “Sulfonylamide Compounds as CDK2 Inhibitors for Treating Cancer” (ACS Med Chem Lett, 2021).

Each molecule was assayed against Cyclin-dependent kinase 2/cyclin E1 (Homo sapiens, UniProt P24941) (assay: Inhibition of human GST-tagged CDK2/FLAG-Cyclin E1 (unknown origin) expressed in baculovirus expression system incubated for 60 mins by HTRF enzyme activity assay).

| SMILES | IC50 |
| --- | --- |
| CNS(=O)(=O)c1ccc(Nc2ncc3c(n2)N([C@@H]2CCC[C@H]2C)C(=O)C32CC2)cc1 | ≤ 50 nM |
| CC[C@@H](N1C(=O)C2(CC2)c2cnc(Nc3ccc(S(=O)(=O)NC)cc3)nc21)C(F)(F)F | ≤ 50 nM |
| CC1(NS(=O)(=O)c2ccc(Nc3ncc4c(n3)N([C@@H]3CCC[C@]3(C)O)C(=O)C43CC3)cc2)CNC1 | ≤ 50 nM |
| CC1CCCC1N1C(=O)C2(CC2)c2cnc(Nc3ccc(S(=O)(=O)N[C@@H]4CCCN(C)C4)cc3)nc21 (stereo partly specified) | ≤ 50 nM |
| CNS(=O)(=O)c1ccc(Nc2ncc3c(n2)N(c2cc4c(cc2Cl)CNCC4)C(=O)C32CC2)cc1 | ≤ 50 nM |
| CN(C)CCNS(=O)(=O)c1ccc(Nc2ncc3c(n2)N(c2cc(F)ccc2Cl)C(=O)C32CC2)cc1 | ≤ 50 nM |
